Results on one molecule are retold here after patent US20180140578A1, “METHODS AND COMPOSITIONS FOR THE DIAGNOSIS AND SELECTIVE TREATMENT OF CANCER” (Board of Regents of the University of Texas System, priority 2016, published 2018).

The subject of one experiment is RBM39 mRNA. In words: qPCR quantification of RBM39 mRNA. It counts as cell-based, human. The following applies: HCT-116 cells after indisulam treatment. As to the method:
RNAs isolated from indisulam or siRNA treated cells were first treated with Turbo DNase (Life Technologies) to remove contaminating genomic DNA. After RNA cleanup with Quick-RNA MiniPrep kit (Zymo Research), 500 ng of total RNAs was converted into cDNAs with Multiscribe reverse transcriptase (Life Technologies). Exon skipping in TRIM27 was visualized by PCR amplification with 5′-[…]-3′ (SEQ ID NO: 3) and 5′-[…]-3′ (SEQ ID NO: 4) from cDNAs. […] Relative RNA levels were calculated based on 2^−ct method using Cyclophilin mRNA for normalization. The following primers were used for quantification of mRNA levels: […]
For measurement of RBM39 mRNA levels, the following primers were used: […]
(In qPCR the cycle at which signal appears reflects the starting amount.)

Another experiment deals with T1, RBM39-3xFLAG (Homo sapiens, UniProt Q14498+Q66K64).
T1 construct: expressed in transfected cells; host or cells: 293T
The experiment can be described thus: In vivo polyubiquitination of RBM39. It counts as cell-based. The following applies: DCAF15 co-expressed; 293T cells. As to the method:
cDNAs encoding RBM39-3xFLAG, RBM39 G268V-3xFLAG, and DCAF15-V5 were cloned into the pCDNA3.1+vector. pCMV 8XHis Ub was a gift from William Kaelin (Dana Farber Cancer Institute). 0.4 million 293T cells were seeded per well on 6-well plates and allowed to attach overnight. 250 ng of pCMV 8XHis Ub, 500 ng of pCDNA3-DCAF15-V5, 10 ng of either pCDNA3-RBM39-3xFLAG or pCDNA3-RBM39 G268V-3xFLAG were transfected. […] Cells were lifted from the plates by pipetting, pelleted by centrifugation, and washed once with PBS. Purification of His-Ub tagged proteins was performed as described (5).

Experiment [1] has as its system DCAF15-3xFLAG and mutant RBM39Δ150 (M265L, E271Q, P272S). The experiment can be described thus: RBM39Δ150 pulldown assay, mutant RBM39. It counts as binding, human. As to conditions: at concentrations as high as 10 μM. Here is the method: RBM39 lacking the first 150 amino acids after the start codon (RBM39Δ150) was cloned into the pFastBac1 (Life Technologies) vector. Site-directed Mutagenesis of RBM39 was performed using Q5 site-directed mutagenesis kit (NEB). DCAF15-GST (C-terminal GST tag) and DDB1 were also cloned into pFastBac1. The production of baculovirus was carried out following vendor's instructions. Protein was expressed in SF9 cells by infection with each protein specific baculovirus, and cells were harvested 48 hr later and frozen in liquid nitrogen. For purification of RBM39Δ150, frozen cells were pulverized by cryomill and resuspended in lysis buffer (40 mM Tris, pH 7.5, 225 mM NaCl, 1× […] Protease inhibitor). The lysate was passed through a 22 gauge needle 2 times followed by ultracentrifugation at 25000 rpm for 30 min. Clarified lysate was incubated with Ni-NTA agarose (Qiagen) for 30 min with rotation at 4° C. Resin and bound protein were washed with wash buffer 1 (40 mM Tris, pH 7.5, 225 mM NaCl) followed by wash buffer 2 (40 mM Tris, pH 7.5, 20 mM imidazole, 225 mM NaCl). Proteins were eluted with elution buffer (40 mM Tris, pH 7.5, 300 mM imidazole, 225 mM NaCl) and concentrated to 0.5 ml. Concentrated proteins were then fractionated on Superdex 200 Increase 10/300 GL (GE Healthcare). […]

The subject of experiment [2] is tumors derived from parental HCT-116 cells. The following applies: IV 25 mg/kg for 8 days; immune deficient mice; cited from earlier work.
Another experiment has as its system 758 cancer cell lines. The following applies: CTD2 AUC values; cited from earlier work.

As for `NS(=O)(=O)c1ccc(S(=O)(=O)Nc2cccc3c(Cl)c[nH]c23)cc1` [Indisulam, indisulam], in the experiment on RBM39 mRNA, the “RBM39 mRNA” value was “no dose dependent decrease”. The RBM39 ubiquitination result on RBM39-3xFLAG was “increased RBM39 ubiquitination”. Moreover, in experiment [1], the “recruitment of M265L or E271Q variants of RBM39Δ150 to DCAF15” value was “failed to recruit”. Also, in experiment [2], the “tumor response (previously shown)” value was “regression”. Further, the “sensitivity to indisulam amongst hematopoietic and lymphoid (HL) lineage cell lines” value in the experiment on 758 cancer cell lines was “significantly enriched”.
